Experimental data: patent US20210221866A1, “PROTEASE-RESISTANT LIPIDATED GLP-1 ANALOGS” (MEDIMMUNE LIMITED, priority 2015, published 2021)
Where two headings read alike, the source gives them in different places. Numbered stars: 1 amine (or outer) side, 2 acyl side, 3 side chain; on linkers, the order of the positions; unused ones are H or OH. Square brackets hold non-standard residues; d marks the D form. Side chains are listed from the residue outwards. Peptide text beside a SMILES is read from it. * marks the point of attachment. C18 diacid = O=C(O)CCCCCCCCCCCCCCCCC(=O)*; γGlu = O=C(O)[C@H](CCC(=O)[*:2])N[*:1]; Palmitoyl = CCCCCCCCCCCCCCCC(=O)*; αMeF = C[C@](N)(Cc1ccccc1)C(=O)O; αMeK = C[C@](N)(CCCCN)C(=O)O; Lauroyl = CCCCCCCCCCCC(=O)*; αMeS = C[C@](N)(CO)C(=O)O; AEEA = NCCOCCOCC(=O)O; Aib = CC(C)(N)C(=O)O

Biological target: T1, human GLP-1 receptor (GLP-1R) (Homo sapiens, UniProt P43220)
T1 construct: expressed in transfected cells; host or cells: HEK293 cells or CHO cells
Assay: cAMP assay, human GLP-1R cells
Format: cell-based
Procedure: Sample dilutions are made in duplicate.
A frozen cryo-vial of cells expressing the receptor of interest is thawed rapidly in a water-bath, transferred to pre-warmed assay buffer and spun at 240×g for 5 minutes. Cells are re-suspended in assay buffer at a batch-dependent optimized concentration (e.g. hGCGR cells at 2×10^5 cells/ml, hGLP-1R and hGIPR cells at 1×10^5 cells/ml).
To this, 5 μL cell suspension is added and the plates incubated at room temperature for 30 minutes.
cAMP levels are measured using a commercially available cAMP dynamic 2 HTRF kit (Cisbio, Cat #62AM4PEJ), following the two step protocol as per manufacturer's recommendations. In brief; anti-cAMP cryptate (donor fluorophore) and cAMP-d2 (acceptor fluorophore) are made up separately by diluting each 1/20 in conjugate & lysis buffer provided in the kit. 5 μL anti-cAMP cryptate is added to wells of the assay plate, and 5 μL cAMP-d2 is added to wells except non-specific binding (NSB) wells, to which conjugate and lysis buffer are added. […] EC50 values of the synthetic peptides determined in cAMP assays are then determined.
Data is transformed to % Delta F as described in the manufacturer's guidelines and analyzed by 4-parameter logistic fit to determine EC50 values. […] To compare the balance of activities at the GLP-1R and GCGR between different peptides and across different conditions, these can be correlated, where the EC50's are related to those of comparator peptides.

[1] = Table 11, tris-lipidated peptides, mean of n1 and n2, read-out: Primary assay EC50 Mean pM GLP-1R
[2] = cAMP activity, mean of n1 and n2, read-out: Mean pM GLP-1R

T1 sequence (P43220 24-463): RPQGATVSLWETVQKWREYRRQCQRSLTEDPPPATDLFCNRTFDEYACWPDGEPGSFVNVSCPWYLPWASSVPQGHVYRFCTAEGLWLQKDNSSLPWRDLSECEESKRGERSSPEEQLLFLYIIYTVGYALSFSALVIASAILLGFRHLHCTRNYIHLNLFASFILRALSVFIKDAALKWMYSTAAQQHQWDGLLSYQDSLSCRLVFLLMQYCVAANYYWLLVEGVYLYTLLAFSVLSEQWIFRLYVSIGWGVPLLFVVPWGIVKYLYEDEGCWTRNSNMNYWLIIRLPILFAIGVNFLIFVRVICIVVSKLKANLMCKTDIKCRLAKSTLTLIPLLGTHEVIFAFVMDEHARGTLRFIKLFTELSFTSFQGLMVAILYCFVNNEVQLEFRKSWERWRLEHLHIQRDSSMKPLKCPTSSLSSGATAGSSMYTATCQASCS

EC50 [1]	EC50 [2]	SMILES	also measured
142 pM		CCCCCCCCCCCC(=O)N[C@@H](CCC(=O)NCCOCCOCC(=O)NCCOCCOCC(=O)NCCCC[C@H](NC(=O)[C@H](C)NC(=O)[C@@H](NC(=O)[C@H](Cc1ccccc1)NC(=O)[C@H](CCC(=O)O)NC(=O)[C@](C)(CCCCN)NC(=O)[C@H](C)NC(=O)[C@H](CCCCNC(=O)COCCOCCNC(=O)COCCOCCNC(=O)CC[C@H](NC(=O)CCCCCCCCCCC)C(=O)O)NC(=O)[C@H](CCC(=O)O)NC(=O)CNC(=O)[C@H](CCC(=O)O)NC(=O)[C@H](CC(C)C)NC(=O)[C@H](Cc1ccc(O)cc1)NC(=O)[C@H](CO)NC(=O)[C@H](CO)NC(=O)[C@H](CCCCNC(=O)COCCOCCNC(=O)COCCOCCNC(=O)CC[C@H](NC(=O)CCCCCCCCCCC)C(=O)O)NC(=O)[C@H](CC(=O)O)NC(=O)[C@H](CO)NC(=O)[C@@H](NC(=O)[C@](C)(Cc1ccccc1)NC(=O)[C@H](CO)NC(=O)CNC(=O)[C@H](CCC(=O)O)NC(=O)C(C)(C)NC(=O)[C@@H](N)Cc1c[nH]cn1)[C@@H](C)O)[C@@H](C)CC)C(=O)N[C@H](C(=O)N[C@H](C(=O)N[C@@H](CCC(=O)O)C(=O)NCC(=O)NCC(N)=O)C(C)C)C(C)C)C(=O)O [compound 457] (H-H[Aib]EGS[αMeF]TSDK([AEEA-AEEA-γGlu-Lauroyl])SSYLEGEK([AEEA-AEEA-γGlu-Lauroyl])A[αMeK]EFIAK([AEEA-AEEA-γGlu-Lauroyl])VVEGG-NH2; N-terminus assumed)	EC50 (Table 11, tris-lipidated peptides, replicate n1, read-out: Primary assay EC50 GLP-1R n1): 127 pM; EC50 (Table 11, tris-lipidated peptides, replicate n2, read-out: Primary assay EC50 GLP-1R n2): 156 pM
	5 pM	CC[C@H](C)[C@H](NC(=O)[C@](C)(Cc1ccccc1)NC(=O)[C@H](CCC(=O)O)NC(=O)[C@](C)(CCCCN)NC(=O)[C@H](C)NC(=O)[C@H](C)NC(=O)[C@H](CCC(=O)O)NC(=O)CNC(=O)[C@H](CCC(=O)O)NC(=O)[C@H](CC(C)C)NC(=O)[C@](C)(Cc1ccccc1)NC(=O)[C@H](CO)NC(=O)[C@](C)(CO)NC(=O)[C@@H](NC(=O)[C@H](CC(=O)O)NC(=O)[C@H](CO)NC(=O)[C@@H](NC(=O)[C@](C)(Cc1ccccc1)NC(=O)[C@H](CO)NC(=O)CNC(=O)[C@H](CCC(=O)O)NC(=O)C(C)(C)NC(=O)[C@@H](N)Cc1c[nH]cn1)[C@@H](C)O)C(C)C)C(=O)N[C@@H](C)C(=O)N[C@@H](CCCCNC(=O)COCCOCCNC(=O)COCCOCCNC(=O)CC[C@H](NC(=O)CCCCCCCCCCCCCCCCC(=O)O)C(=O)O)C(=O)N[C@H](C(=O)N[C@H](C(=O)N[C@@](C)(CCCCN)C(=O)NCC(=O)NCC(N)=O)C(C)C)C(C)C [compound 104]	
	62 pM	CC[C@H](C)[C@H](NC(=O)[C@](C)(Cc1ccccc1)NC(=O)[C@H](CCC(=O)O)NC(=O)[C@](C)(CCCCN)NC(=O)[C@H](CCCCNC(=O)COCCOCCNC(=O)COCCOCCNC(=O)CC[C@H](NC(=O)CCCCCCCCCCCCCCCCC(=O)O)C(=O)O)NC(=O)[C@H](C)NC(=O)[C@H](CCC(=O)O)NC(=O)CNC(=O)[C@H](CCC(=O)O)NC(=O)[C@H](CC(C)C)NC(=O)[C@](C)(Cc1ccccc1)NC(=O)[C@H](CO)NC(=O)[C@](C)(CO)NC(=O)[C@@H](NC(=O)[C@H](CC(=O)O)NC(=O)[C@H](CO)NC(=O)[C@@H](NC(=O)[C@](C)(Cc1ccccc1)NC(=O)[C@H](CO)NC(=O)CNC(=O)[C@H](CCC(=O)O)NC(=O)C(C)(C)NC(=O)[C@@H](N)Cc1c[nH]cn1)[C@@H](C)O)C(C)C)C(=O)N[C@@H](C)C(=O)N[C@@](C)(Cc1ccccc1)C(=O)N[C@H](C(=O)N[C@H](C(=O)N[C@@](C)(CCCCN)C(=O)NCC(=O)NCC(N)=O)C(C)C)C(C)C [compound 110] (H-H[Aib]EGS[αMeF]TSDV[αMeS]S[αMeF]LEGEAK([AEEA-AEEA-γGlu-C18 diacid])[αMeK]E[αMeF]IA[αMeF]VV[αMeK]GG-NH2; N-terminus assumed)	
57.5 pM		CCCCCCCCCCCC(=O)N[C@@H](CCC(=O)NCCOCCOCC(=O)NCCOCCOCC(=O)NCCCC[C@H](NC(=O)CNC(=O)[C@H](CCC(=O)O)NC(=O)[C@H](CC(C)C)NC(=O)[C@H](CCCCNC(=O)COCCOCCNC(=O)COCCOCCNC(=O)CC[C@H](NC(=O)CCCCCCCCCCC)C(=O)O)NC(=O)[C@H](CO)NC(=O)[C@](C)(CO)NC(=O)[C@@H](NC(=O)[C@H](CC(=O)O)NC(=O)[C@H](CO)NC(=O)[C@@H](NC(=O)[C@](C)(Cc1ccccc1)NC(=O)[C@H](CO)NC(=O)CNC(=O)[C@H](CCC(=O)O)NC(=O)C(C)(C)NC(=O)[C@@H](N)Cc1c[nH]cn1)[C@@H](C)O)C(C)C)C(=O)N[C@@H](C)C(=O)N[C@@H](C)C(=O)N[C@@](C)(CCCCN)C(=O)N[C@@H](CCC(=O)O)C(=O)N[C@@H](Cc1ccccc1)C(=O)N[C@H](C(=O)N[C@@H](C)C(=O)N[C@@H](Cc1ccccc1)C(=O)N[C@@H](CCCCNC(=O)COCCOCCNC(=O)COCCOCCNC(=O)CC[C@H](NC(=O)CCCCCCCCCCC)C(=O)O)C(=O)N[C@H](C(=O)N[C@@H](CCC(=O)O)C(=O)NCC(=O)NCC(N)=O)C(C)C)[C@@H](C)CC)C(=O)O [compound 480] (H-H[Aib]EGS[αMeF]TSDV[αMeS]SK([AEEA-AEEA-γGlu-Lauroyl])LEGK([AEEA-AEEA-γGlu-Lauroyl])AA[αMeK]EFIAFK([AEEA-AEEA-γGlu-Lauroyl])VEGG-NH2; N-terminus assumed)	
	2.1 pM	CCCCCCCCCCCCCCCC(=O)N[C@@H](CCC(=O)NCCCC[C@H](NC(=O)[C@](C)(Cc1ccccc1)NC(=O)[C@H](C)NC(=O)[C@@H](NC(=O)[C@](C)(Cc1ccccc1)NC(=O)[C@H](CCC(=O)O)NC(=O)[C@](C)(CCCCN)NC(=O)[C@H](C)NC(=O)[C@H](C)NC(=O)[C@H](CCC(=O)O)NC(=O)CNC(=O)[C@H](CCC(=O)O)NC(=O)[C@H](CC(C)C)NC(=O)[C@](C)(Cc1ccccc1)NC(=O)[C@H](CO)NC(=O)[C@](C)(CO)NC(=O)[C@@H](NC(=O)[C@H](CC(=O)O)NC(=O)[C@H](CO)NC(=O)[C@@H](NC(=O)[C@](C)(Cc1ccccc1)NC(=O)[C@H](CO)NC(=O)CNC(=O)[C@H](CCC(=O)O)NC(=O)C(C)(C)NC(=O)[C@@H](N)Cc1c[nH]cn1)[C@@H](C)O)C(C)C)[C@@H](C)CC)C(=O)N[C@H](C(=O)N[C@@](C)(CCCCN)C(=O)NCC(=O)NCC(N)=O)C(C)C)C(=O)O [compound 74] (H-H[Aib]EGS[αMeF]TSDV[αMeS]S[αMeF]LEGEAA[αMeK]E[αMeF]IA[αMeF]K([γGlu-Palmitoyl])V[αMeK]GG-NH2; N-terminus assumed)	
	2100 pM	CC(C)[C@H](NC(=O)[C@H](CCC(=O)O)NC(=O)[C@H](CO)NC(=O)[C@H](CO)NC(=O)[C@](C)(Cc1ccccc1)NC(=O)[C@H](CO)NC(=O)CNC(=O)[C@H](CCC(=O)O)NC(=O)C(C)(C)NC(=O)[C@@H](N)Cc1c[nH]cn1)C(=O)N[C@@H](CO)C(=O)N[C@@H](CO)C(=O)N[C@@](C)(Cc1ccccc1)C(=O)N[C@H](C(=O)N[C@@H](CCC(=O)O)C(=O)NCC(=O)N[C@@H](CCC(=O)O)C(=O)N[C@@H](C)C(=O)N[C@@H](C)C(=O)N[C@@](C)(CCCCN)C(=O)N[C@@H](CCC(=O)O)C(=O)N[C@@](C)(Cc1ccccc1)C(=O)N[C@H](C(=O)N[C@@H](C)C(=O)N[C@@](C)(Cc1ccccc1)C(=O)N[C@H](C(=O)N[C@H](C(=O)N[C@@](C)(CCCCN)C(=O)NCC(=O)NCC(N)=O)C(C)C)C(C)C)C(C)C)C(C)C [compound 12] (H-H[Aib]EGS[αMeF]SSEVSS[αMeF]VEGEAA[αMeK]E[αMeF]VA[αMeF]VV[αMeK]GG-NH2; N-terminus assumed)	
143 pM		CCCCCCCCCCCC(=O)N[C@@H](CCC(=O)NCCOCCOCC(=O)NCCOCCOCC(=O)NCCCC[C@H](NC(=O)[C@H](CCC(=O)O)NC(=O)CNC(=O)[C@H](CCC(=O)O)NC(=O)[C@H](CC(C)C)NC(=O)[C@H](CCCCNC(=O)COCCOCCNC(=O)COCCOCCNC(=O)CC[C@H](NC(=O)CCCCCCCCCCC)C(=O)O)NC(=O)[C@H](CO)NC(=O)[C@](C)(CO)NC(=O)[C@@H](NC(=O)[C@H](CC(=O)O)NC(=O)[C@H](CO)NC(=O)[C@@H](NC(=O)[C@](C)(Cc1ccccc1)NC(=O)[C@H](CO)NC(=O)CNC(=O)[C@H](CCC(=O)O)NC(=O)C(C)(C)NC(=O)[C@@H](N)Cc1c[nH]cn1)[C@@H](C)O)C(C)C)C(=O)N[C@@H](C)C(=O)N[C@@](C)(CCCCN)C(=O)N[C@@H](CCC(=O)O)C(=O)N[C@@H](Cc1ccccc1)C(=O)N[C@H](C(=O)N[C@@H](C)C(=O)N[C@@H](Cc1ccccc1)C(=O)N[C@@H](CCCCNC(=O)COCCOCCNC(=O)COCCOCCNC(=O)CC[C@H](NC(=O)CCCCCCCCCCC)C(=O)O)C(=O)N[C@H](C(=O)N[C@@H](CCC(=O)O)C(=O)NCC(=O)NCC(N)=O)C(C)C)[C@@H](C)CC)C(=O)O [compound 481] (H-H[Aib]EGS[αMeF]TSDV[αMeS]SK([AEEA-AEEA-γGlu-Lauroyl])LEGEK([AEEA-AEEA-γGlu-Lauroyl])A[αMeK]EFIAFK([AEEA-AEEA-γGlu-Lauroyl])VEGG-NH2)	
